Laboratory results reported in article PMC7170309, “Imidazopyridine-fused [1,3]diazepinones: modulations of positions 2 to 4 and their impacts on the anti-melanoma activity” (Journal of Enzyme Inhibition and Medicinal Chemistry, 2020).

Columns and labels:
Format in all cases: cell-based, human
[1] = test system: UACC-257; test: NCI-60 SRB assay, UACC-257 (Melanoma); details: 10 µM, 48 h; for G%: growth vs untreated control
Experimental: (§1) Primary anticancer assay was performed on a panel of 60 human cancer cell lines derived from nine neoplastic diseases, in accordance with the protocol of the Drug Evaluation Branch, National Cancer Institute, Bethesda, Maryland, USA[22]. Cells were incubated with tested compounds at 10 µM for 48 h. The growth percentage was evaluated spectrophotometrically using a protein binding dye, SRB. Results for each tested compound were reported as the percent of growth of treated cells when compared to untreated control cells.
(§2) To better compare the activity profile of these two series of compounds, compounds 5 and 8 were selected and then evaluated towards a panel of sixty cancer cell lines corresponding to nine different cancer types, i.e. leukaemia, melanoma, as well as lung, colon, central nervous system, ovarian, renal, prostate and breast cancers (NCI evaluation). Indeed, it is now well established that the growth inhibitory patterns of anticancer drugs against the NCI-60 cell line panel correlated well with their modes of action. For example, compounds that bind to tubulin have similar growth inhibition patterns regardless of which site on tubulin they bind[30]. […] Compounds were tested using the sulforhodamine B (SRB) assay that provides a direct cell density index. The amount of dye incorporated by the cells increases with the increase of the total protein biomass. Cells were incubated for 48 h with compounds at 10 µM concentration, then cell growth was evaluated spectrophotometrically and presented as the percent of untreated control cells. Values of the most sensitive cell lines were compared to those obtained with JMV5038 (Figure 4, for all data see SI).

[2] = test system: SW-620; test: NCI-60 SRB assay, SW-620 (Colon Cancer); details: 10 µM, 48 h; for G%: growth vs untreated control
Experimental: as §1, §2

[3] = test system: BT-549; test: NCI-60 SRB assay, BT-549 (Breast Cancer); details: 10 µM, 48 h; for G%: growth vs untreated control
Experimental: as §1, §2

[4] = test system: HL-60(TB); test: NCI-60 SRB assay, HL-60(TB) (Leukemia); details: 10 µM, 48 h; for G%: growth vs untreated control
Experimental: as §1, §2

[5] = test system: EKVX; test: NCI-60 SRB assay, EKVX (NSCLC); details: 10 µM, 48 h; for G%: growth vs untreated control
Experimental: as §1, §2

[6] = test system: SF-268; test: NCI-60 SRB assay, SF-268 (CNS Cancer); details: 10 µM, 48 h; for G%: growth vs untreated control
Experimental: as §1, §2

[7] = test system: A549/ATCC; test: NCI-60 SRB assay, A549/ATCC (NSCLC); details: 10 µM, 48 h; for G%: growth vs untreated control
Experimental: as §1, §2

[8] = test system: NCI-H522; test: NCI-60 SRB assay, NCI-H522 (NSCLC); details: 10 µM, 48 h; for G%: growth vs untreated control
Experimental: as §1, §2

[9] = test system: HOP-62; test: NCI-60 SRB assay, HOP-62 (NSCLC); details: 10 µM, 48 h; for G%: growth vs untreated control;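 as to Mean G% - G%: mean growth across the NCI-60 panel minus this line's growth with positive meaning more sensitive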
Experimental: as §1, §2

[10] = test system: U251; test: NCI-60 SRB assay, U251 (CNS Cancer); details: 10 µM, 48 h; for G%: growth vs untreated control
Experimental: as §1, §2

[11] = test system: HCT-15; test: NCI-60 SRB assay, HCT-15 (Colon Cancer); details: 10 µM, 48 h; for G%: growth vs untreated control
Experimental: as §1, §2

[12] = test system: NCI-H226; test: NCI-60 SRB assay, NCI-H226 (NSCLC); details: 10 µM, 48 h; for G%: growth vs untreated control
Experimental: as §1, §2

[13] = test system: UACC-62; test: NCI-60 SRB assay, UACC-62 (Melanoma); details: 10 µM, 48 h; for G%: growth vs untreated control
Experimental: as §1, §2

[14] = test system: MDA-MB-468; test: NCI-60 SRB assay, MDA-MB-468 (Breast Cancer); details: 10 µM, 48 h; for G%: growth vs untreated control;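 as to Mean G% - G%: mean growth across the NCI-60 panel minus this line's growth with positive meaning more sensitive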
Experimental: as §1, §2

[15] = test system: HCT-116; test: NCI-60 SRB assay, HCT-116 (Colon Cancer); details: 10 µM, 48 h; for G%: growth vs untreated control
Experimental: as §1, §2

[16] = test system: MDA-MB-435 cells; test: Immunofluorescent staining for actin localisation (confocal microscopy); details: 5 µM, 20 h
Experimental: To evaluate the effect of compound treatment on cell morphology and stress actin fibres, an immunofluorescence imaging of cells was performed as previously described. MDA-MB-435 cells were seeded on cover slips in petri dishes and allowed to grow for 24 h. After cell growth, cells were treated with the vehicule (control cells) or with JMV5038, compound 5 or 8 at 5 µM for 20 h. Then cells were fixed using Antigenfix for 20 min and permeabilized using 0.2% Triton X-100 for 4 min at room temperature. Actin was stained using a primary human anti-actin antibody (made from mouse) and a secondary Alexa Fluor 568-conjugated goat anti-mouse antibody. Both of them were incubated 1 h at room temperature. Nuclei were counter-stained using Hoechst 33342. Representative images were obtained using a Zeiss LSM 780 inverted confocal microscopy. Confocal fluorescence microscopy was performed on fixed cells under a 543 nm wavelength excitation for AlexaFluor568, and 405 nm for nuclei, and visualised at 620 nm (red) and 450 nm (blue) respectively.
In our previous study, we reported that JMV5038 led to changes in the cell morphology, concomitant with a disruption of the actin network. Morphological changes in MDA-MB-435 cells induced by compounds 5 or 8 were investigated and compared to those induced by JMV5038. For this purpose, fixed and actin immunostained MDA-MB-435 cells were imaged by confocal microscopy (Figure 6). Control cells treated with DMSO (20 h, 5 µM concentration) were spread and the tensile forces of actin stress fibres stretched the cell-adhesive phenotype.

[17] = test system: MDA-MB-435 cells; test: DNA cell cycle analysis (flow cytometry); details: 5 µM; for proportion of cells in G2/M phase: control 14.3%; for proportion of cells in G1 phase: control 47.1%
Experimental: The cell cycle analysis was performed as previously described to compare data with our previous results. Flow cytometric analysis was performed on 350,000 MDA-MB-435 cells seeded in culture dishes (60 mm diameter) and allowed to grow for 48 h. Cells were then treated with compound 5 or 8 at 5 µM concentration for 16 h and 48 h. After treatment cells were harvested and fixed with 70% ethanol. The fixed cells were then incubated with 10 mg/mL RNase A (Sigma Aldrich) and 1 mg/mL propidium iodide (Sigma Aldrich), in the dark, for 24 h at 4 °C. Finally, DNA content of the cells was analysed using Gallios Beckman Coulter flow cytometer with FlowJo software v1.0.
Thus, compound 5 could probably shared a common mechanism of action with JMV5038, contrary to compound 8. DNA cell cycle analysis was performed using MDA-MB-435 cells treated with either compound 5 or compound 8, and compared to that obtained with cells treated with vehicle (DMSO) as a negative control. Cell cycle pattern changes of MDA-MB-435 cells were investigated using fluorescence-activated cell sorting (FACS) (Figure 5 and Figure S1, SI). In this experiment MDA-MB-435 cells were treated with or without 5 µM concentration of compound 5 or 8 for 16 h and 48 h.

[18] = test system: K-562; test: NCI-60 SRB assay, K-562 (Leukemia); details: 10 µM, 48 h; for G%: growth vs untreated control
Experimental: as §1, §2

[19] = test system: RPMI-8226; test: NCI-60 SRB assay, RPMI-8226 (Leukemia); details: 10 µM, 48 h; for G%: growth vs untreated control
Experimental: as §1, §2

SMILES | Mean G% - G% [1] | G% [1] | Mean G% - G% [2] | G% [2] | Mean G% - G% [3] | G% [3] | Mean G% - G% [6] | G% [6] | Mean G% - G% [7] | G% [7] | Mean G% - G% [8] | G% [8] | Mean G% - G% [9] | G% [9] | Mean G% - G% [10] | G% [10] | Mean G% - G% [11] | G% [11] | Mean G% - G% [12] | G% [12] | also measured
[N-]=[N+]=NCCCC[C@@H]1NC(c2ccc(Br)cc2)=Nc2nc3ccccn3c2C1=O [Compound 16, (4S)-4-(4-azidobutyl)-2-(4-bromophenyl)-3,4-dihydro-5H-pyrido[1’,2’:1,2]imidazo[4,5-d][1,3]diazepin-5-one] | 5,48% | 86,29% | -0,19% | 91,96% | -13,82% | 105,59% | 1,04% | 90,73% | 16,61% | 75,16% | 7,01% | 84,76% | 14,42% | 77,35% | 0,74% | 91,03% | -6,56% | 98,33% | 3,58% | 88,19% | Mean G% - G% [4]: 18,52%; G% [4]: 73,25%; Mean G% - G% [5]: 12,19%; G% [5]: 79,58%; Mean G% - G% [13]: 11,94%; G% [13]: 79,83%; Mean G% - G% [14]: -6,46%; G% [14]: 98,23%; Mean G% - G% [15]: -1,04%; G% [15]: 92,81%
C[C@@H]1NC(c2ccc(N=[N+]=[N-])cc2)=Nc2nc3ccccn3c2C1=O [Compound 5, (4S)-4-methyl-2-(4-azidophenyl)-3,4-dihydro-5H-pyrido[1’,2’:1,2]imidazo[4,5-d][1,3]diazepin-5-one] | -15,59% | 100,85% | 13,36% | 71,90% | -10,11% | 95,37% | -12,35% | 97,61% | -3,81% | 89,07% | 13,32% | 71,94% | 6,31% | 78,95% | -13,85% | 99,11% | 16,87% | 68,39% | -3,88% | 89,14% | Mean G% - G% [5]: 3,45%; G% [5]: 81,81%; morphological changes / actin network [16]: disorganisation of the actin cytoskeleton; proportion of cells in G2/M phase ([17]; 16 h): 33.1%; proportion of cells in G1 phase ([17]; 16 h): decrease of cells in G1 phase; proportion of cells in G2/M phase ([17]; 48 h): 18.4%; cells in subG1 phase (apoptosis) ([17]; time not explicit (sentence follows 48 h), control 1.2%): 2.4%; Mean G% - G% [13]: 17,97%; G% [13]: 67,29%; Mean G% - G% [14]: 11,88%; G% [14]: 73,38%; Mean G% - G% [15]: -2,45%; G% [15]: 87,71%
C[C@@H]1NC(c2ccc(Br)cc2)=Nc2nc3ccccn3c2C1=O [JMV5038] | -15,71% | 69,95% | 16,28% | 37,96% | 4,92% | 49,32% | -29,20% | 83,44% | -0,42% | 54,66% | 19,43% | 34,81% | -1,60% | 55,84% | 0,29% | 53,95% | 23,49% | 30,75% | -14,04% | 68,28% | Mean G% - G% [18]: 29,92%; G% [18]: 24,32%; morphological changes / actin network [16]: disorganisation of the actin cytoskeleton; Mean G% - G% [13]: 5,01%; G% [13]: 49,23%; Mean G% - G% [19]: -39,73%; G% [19]: 93,97%; Mean G% - G% [14]: 54,74%; G% [14]: -0,50%; Mean G% - G% [15]: 25,02%; G% [15]: 29,22%
C[C@@H]1NC(c2csc3ccccc23)=Nc2nc3ccccn3c2C1=O [Compound 8, (4S)-4-methyl-2-benzothiophen-3-yl-3,4-dihydro-5H-pyrido[1’,2’:1,2]imidazo[4,5-d][1,3]diazepin-5-one] | -23,68% | 98,55% | -0,70% | 75,57% | -11,85% | 86,72% | 8,82% | 66,05% | 8,10% | 66,77% | -20,45% | 95,32% | 23,74% | 51,13% | -12,47% | 87,34% | -1,17% | 76,04% | 2,63% | 72,24% | Mean G% - G% [4]: 6,00%; G% [4]: 68,87%; Mean G% - G% [5]: 0,63%; G% [5]: 74,24%; Mean G% - G% [18]: -6,34%; G% [18]: 81,21%; morphological changes / actin network [16]: disorganisation of the actin cytoskeleton; proportion of cells in G2/M phase ([17]; 16 h): 20.8%; proportion of cells in G1 phase ([17]; 16 h): 53.0%; proportion of cells in G2/M phase ([17]; 48 h): 15.4%; Mean G% - G% [13]: -12,07%; G% [13]: 86,94%; Mean G% - G% [19]: 24,51%; G% [19]: 50,36%; Mean G% - G% [14]: 4,18%; G% [14]: 70,69%; Mean G% - G% [15]: 2,74%; G% [15]: 72,13%
